Results on eleven compounds are retold here after patent publication US10100285B2, “Ex vivo proliferation of epithelial cells” (PROPAGENIX INC., priority 2015, dated 2018).

“Also recorded” adds a separate entry of the source. Counter-ions that a name gives are not always drawn. Like-named read-outs stand apart in the source and are kept apart here.

Series [1] has as its system late passage prostate epithelial cells. The format is cell-based. As to conditions: for increase of total cell number after 5 days: KSFM plus individual compound alone at 5 μM; for increase of total cell number after 5 days / cell proliferation when used together with A83-01: 1 μM, 0.2 μM; for cell proliferation when used together with A83-01: KSFM supplemented with A83-01 plus compound at 5 μM, 5 days. An excerpt:
As described above, these include Rho kinase inhibitors (i.e., Rho-associated protein kinase inhibitors) such as Y-27632, SR 3677, GSK 429286 and Thiazovivin; PAK1 inhibitor IPA-3; and myosin II inhibitor (i.e., non-muscle myosin II (NM II) inhibitor) Blebbistatin.

In series [2] the test system is human telomerase reverse transcriptase (hTERT) expression in bronchial epithelial cells. The series can be described thus: hTERT expression by quantitative real-time PCR in bronchial epithelial cells. The format is cell-based. Particulars: KSFM. Here is the method:
(§1) Total RNA was prepared using TRIzol® Plus RNA Purification Kit (Life Technologies, 12183-555) and PureLink® RNA Mini Kit (Life Technologies, 12183018A), following the manufacturer's instructions. One hundred nanogram total RNA was used for the determination of human telomerase reverse transcriptase (hTERT) expression using the TaqMan® RNA-to-CT™ 1-Step Kit (Life Technologies, 4392938), following the protocol provided by the supplier. hTERT primers and Taqman probe used were as follows: forward primer, 5′-[…]-3′ (SEQ ID NO:1), reverse primer, 5′-[…]-3′ (SEQ ID NO:2) and Taqman probe, 5′-[…]-3′ (SEQ ID NO:3).
(§2) In this example, hTERT expression in epithelial cells was assessed in the presence of an ALK5 inhibitor, a Rho kinase inhibitor (i.e., a Rho-associated protein kinase inhibitor), or both. Expression of hTERT gene was examined by quantitative real-time PCR in bronchial epithelial cells and prostate epithelial cells. The cells were treated with an ALK5 inhibitor, A83-01, or a Rho kinase inhibitor (i.e., a Rho-associated protein kinase inhibitor), Y-27632, or both inhibitors, at different passages in KSFM.

Series [3] deals with human telomerase reverse transcriptase (hTERT) expression in prostate epithelial cells. The series can be described thus: hTERT expression by quantitative real-time PCR in prostate epithelial cells. The series is classed as cell-based. Particulars: KSFM. As to the method: as §1, §2
As shown in FIG. 6A and FIG. 6B, prostate epithelial cells at early passage (p2) expressed low level of hTERT, which quickly diminished at passage 3 and became non-detectable by passage 5.
A general note: Real-time PCR tracks product formation cycle by cycle.

In series [4] the test system is prostate epithelial cells. The series can be described thus: Plating efficiency of prostate epithelial cells in KSFM. The format is cell-based, human. From the text: (§3) In this example, epithelial cell plating efficiency, i.e., number of cells that efficiently attach to the cell culture surfaces, continue to divide and grow into colonies, was examined under various conditions.
(§4) However, those few cells that did attach continued to proliferate.
Many prostate epithelial cells attached to regular tissue culture surface in the presence of both A83-01 and Y-27632 at day 2 after plating.

Series [5] has as its system bronchial epithelial cells. The series can be described thus: Plating efficiency of bronchial epithelial cells in KSFM. The series is classed as cell-based, human.
Source text: as §3, §4
Many bronchial epithelial cells attached to regular tissue culture surface in the presence of both A83-01 and Y-27632 at day 2 after plating.

Series [6] concerns prostate epithelial cells. Nature of the series: Growth (population doublings) of prostate epithelial cells. The format is cell-based, human. Particulars: KSFM; for total population doublings: serial culture (FIG. 14). As to the method: (§5) Epithelial cells (prostate epithelial cells and bronchial epithelial cells) were plated at 3,000-10,000 viable cells/cm^2 in tissue culture vessels, using culture medium as indicated in Examples 2 to 5 and FIGS. 1 to 17, and incubated at 37° C. with 5% CO2. The medium was changed every 2 or 3 days. Cells were sub-cultured using standard trypsinization method when they were about 70-90% confluent. Total cell number was determined using the Countess II Automated Cell Counter (Life Technologies, AMQAX1000) following manufacturer's instructions.
(§6) A formula used for the calculation of population doublings (PD) is presented in Equation A: n=3.32*(log Y−log I)+X Equation A where n=the final PD number at end of a given subculture, Y=the cell yield at the time of harvesting, I=the cell number used as inoculum to begin that subculture, and X=the doubling level of the inoculum used to initiate the subculture being quantitated.
(§7) Prostate and bronchial epithelial cells were grown in KSFM in the presence of Rho kinase inhibitor (i.e., Rho-associated protein kinase inhibitor) Y-27632.
To examine the effects of additional in vitro and/or ex vivo growth conditions, prostate epithelial cells were grown in KSFM or PrEGM in the presence of media alone, ALK5 inhibitor A83-01, Rho kinase inhibitor (i.e., Rho-associated protein kinase inhibitor) Y-27632, or both (with or without collagen).

Series [7] concerns bronchial epithelial cells. The series can be described thus: Growth (population doublings) of bronchial epithelial cells. Particulars: KSFM; for total population doublings: serial culture (FIG. 15). The format is cell-based, human. Here is the method: as §5, §6, §7
Similar to the experiment above, bronchial epithelial cells were grown in KSFM in the presence of media alone, ALK5 inhibitor A83-01, Rho kinase inhibitor (i.e., Rho-associated protein kinase inhibitor) Y-27632, or both (with or without collagen).

Series [8] has as its system human foreskin keratinocytes (HFK) and human bronchial epithelial cells (HBEC). Nature of the series: Cell growth with increasing concentrations of isoproterenol. Particulars: added to KSFM plus 1 μM A83-01 and 5 μM Y-27632, six days. The format is cell-based. Here is the method: In a further investigation, epithelial cell growth was assessed in the presence of a beta-adrenergic agonist (i.e., a beta-adrenergic receptor agonist). Human foreskin keratinocytes (HFK) and human bronchial epithelial cells (HBEC) were cultured in KSFM plus 1 μM A83-01 and 5 μM Y-27632, supplemented with increasing concentrations of isoproterenol (a beta-adrenergic receptor agonist that increases cytosolic cAMP levels). Cell numbers were counted after six days to calculate cell growth relative to control.

[9] abbreviates: regular (uncoated) tissue culture surface.
The mark [10] stands for this setting: added together with A83-01, regular tissue culture surface.
Setting [11] is: used alone, continuous use (FIG. 13).

Turning to `Cc1ccc2c(c1)C(=O)C1(O)CCN(c3ccccc3)C1=N2` (racemic) [Blebbistatin, (±)-1,2,3,3a-Tetrahydro-3a-hydroxy-6-methyl-1-phenyl-4H-pyrrolo[2,3-b]quinolin-4-one], in series [1], the “increase of total cell number after 5 days” value (shortened to “increase of total cell number”) is recorded as “did not increase proliferation” and the “cell proliferation when used together with A83-01” value (“cell proliferation” for short) was “synergistically increased”.
`Cc1cccc(-c2nn(C(=S)Nc3ccccc3)cc2-c2ccnc3ccccc23)n1` [A83-01, 3-(6-Methyl-2-pyridinyl)-N-phenyl-4-(4-quinolinyl)-1H-pyrazole-1-carbothioamide]: the hTERT expression result in series [2] (early passage (p3)) is “robustly induced hTERT expression”; in series [2] (late passage (p6)) it was “sustained measurable hTERT expression”; in series [3] (early passage (p2)), “quickly induced hTERT expression”; in series [3] (late passage (p5)), “sustained measurable hTERT expression”. For the same compound, the plating efficiency result in series [4] (setting [9]) was “interfered with prostate epithelial cell plating efficiency”; in series [5] (setting [9]), “interfered with bronchial epithelial cell plating efficiency”. Further, the total population doublings result in series [6] and in series [7] was “also increased the total population doublings” throughout. The “increase of total cell number” value in series [1] is “pronounced increase of total cell number; also recorded: significantly increased”.
In the case of `CC1=C(C(=O)Nc2cc3cn[nH]c3cc2F)C(c2ccc(C(F)(F)F)cc2)CC(=O)N1` (stereo not shown) [GSK 429286, 4-[4-(Trifluoromethyl)phenyl]-N-(6-Fluoro-1H-indazol-5-yl)-2-methyl-6-oxo-1,4,5,6-tetrahydro-3-pyridinecarboxamide], in series [1], the “increase of total cell number” value is listed as “slight increase of total cell numbers” and the “cell proliferation” value was “synergistic effect”.
The like results for `O=C(NC1CCOCC1)c1ccc(-c2cc(-c3c[nH]nc3-c3ccccn3)ccn2)cc1` [GW 788388, 4-[4-[3-(2-Pyridinyl)-1H-pyrazol-4-yl]-2-pyridinyl]-N-(tetrahydro-2H-pyran-4-yl)-benzamide] were, in that order, “pronounced increase of total cell number” and “little extra increase”.
Take `Oc1ccc2ccccc2c1SSc1c(O)ccc2ccccc12` [IPA-3, 1,1′-Dithiodi-2-naphthol]: in series [1], the “increase of total cell number” value is reported as “did not increase proliferation” and the “cell proliferation” value is on record as “synergistically increased”. In addition, in series [1] (highest concentration tested (5 μM)), the cell death entry is given as “nearly total cell death”.
For the compound `Cc1cccc(-c2n[nH]cc2-c2ccc3ncccc3n2)n1` [RepSox, 2-(3-(6-Methylpyridine-2-yl)-1H-pyrazol-4-yl)-1,5-naphthyridine], in series [1], the “increase of total cell number” value is recorded as “pronounced increase of total cell number” and the “cell proliferation” value is on record as “little extra increase”.
For `NC(=O)c1ccc(-c2nc(-c3ccc4c(c3)OCO4)c(-c3ccccn3)[nH]2)cc1` [SB 431542, 4-[4-(1,3-benzodioxol-5-yl)-5-(2-pyridinyl)-1H-imidazol-2-yl]benzamide], in that order: “pronounced increase of total cell number” and “little extra increase”.
For `CN(C)CCOc1cc(-c2cn[nH]c2)ccc1NC(=O)C1COc2ccccc2O1` (stereo not shown) [SR 3677, N-[2-[2-(Dimethylamino)ethoxy]-4-(1H-pyrazol-4-yl)phenyl-2,3-dihydro-1,4-benzodioxin-2-carboxamidedi hydrochloride], in that order: “slight increase of total cell numbers” and “synergistic effect”.
With `O=C(NCc1ccccc1)c1csc(Nc2ccncn2)n1` [Thiazovivin, N-Benzyl-[2-(pyrimidin-4-yl)amino]thiazole-4-carboxamide], in series [1], the “increase of total cell number” value is given as “slight increase of total cell numbers” and the “cell proliferation” value was “synergistic effect”.
In the case of `C[C@@H](N)[C@H]1CC[C@H](C(=O)Nc2ccncc2)CC1.Cl.Cl` [Y-27632, (R)-(+)-trans-4-(1-Aminoethyl)-N-(4-Pyridyl)cyclohexanecarboxamide dihydrochloride], the hTERT expression result is “slightly induced hTERT expression” in series [2] (early passage (p3)), “non-detectable” in series [2] (late passage (p6)), “induced hTERT expression” in series [3] (early passage (p2)) and “non-detectable” in series [3] (late passage (p5)). Besides, the plating efficiency entry in series [4] (setting [10]) and in series [5] (setting [10]) was “ameliorated the low plating efficiency” in each case. For the same compound, the “population doubling reached shortly before senescence” value in series [6] is given as > 20 PD. Moreover, the total population doublings result in series [6] and in series [7] was “slightly increased the total population doublings” in each case. The “proliferation at late passage” value in series [6] (setting [11]) and in series [7] (setting [11]) was “did not promote the proliferation” throughout. Also, in series [1] (dihydrochloride), the “increase of total cell number” value is on record as “slight increase of total cell numbers; also recorded: slight increase of cell proliferation”. Also, the “cell proliferation” value in series [1] is “synergistically increased”.
On to `CC(C)NCC(O)c1ccc(O)c(O)c1` (stereo not shown) [isoproterenol], for which the “cell growth relative to control” value in series [8] is on record as “further increased epithelial cells growth”.
